Laboratory results from patent US9937183B2, “Antimicrobial compounds and methods of making and using the same” (priority 2013, dated 2018).
Values after ≈ are worked out from the molar mass of the structure shown. Where two headings read alike, the source gives them in different places.

How the values were obtained:
Format in all cases: cell-based
B. pseudomallei = test: microbe, parasite or virus in culture; details: Burkholderia pseudomallei; for MIC50: read-out: B. pseudomallei MIC50; for MIC90: read-out: B. pseudomallei MIC90; for MIC: read-out: B. pseudomallei MIC Range
E. coli ATCC25922 = test: MIC, microtiter-based liquid assay (CLSI); details: Escherichia coli
E. coli 1705878 = test: MIC, microtiter-based liquid assay (CLSI); details: Escherichia coli, MDR strain
E. coli MG1655 parent = test: MIC, microtiter-based liquid assay (CLSI); details: Escherichia coli
E. coli CAG12184 TolC = test: MIC, microtiter-based liquid assay (CLSI); details: Escherichia coli, CAG12184TOLC
[1] = test system: S. pneumoniae 02J1175 Mef(A); test: MIC, microtiter-based liquid assay (CLSI); details: Streptococcus pneumoniae
S. aureus 11540 MRSA = test: MIC, microtiter-based liquid assay (CLSI); details: Staphylococcus aureus
K. pneumoniae 1705949 = test: MIC, microtiter-based liquid assay (CLSI); details: Klebsiella pneumoniae, MDR strain
K. pneumoniae 1705966 = test: MIC, microtiter-based liquid assay (CLSI); details: Klebsiella pneumoniae
A. baumannii 1705936 = test: MIC, microtiter-based liquid assay (CLSI); details: Acinetobacter baumannii, MDR strain
A. baumannii 1705943 = test: MIC, microtiter-based liquid assay (CLSI); details: Acinetobacter baumannii
P. aeruginosa ATCC27853 = test: MIC, microtiter-based liquid assay (CLSI); details: Pseudomonas aeruginosa
P. aeruginosa 1705886 = test: MIC, microtiter-based liquid assay (CLSI); details: Pseudomonas aeruginosa
[2] = test system: E. faecium A6349 VanA + LNZ-R; test: MIC, microtiter-based liquid assay (CLSI); details: Enterococcus faecium
B. anthracis = test: microbe, parasite or virus in culture; details: Bacillus anthracis
Y. pestis = test: microbe, parasite or virus in culture; details: for MIC50: read-out: Y. pestis MIC50; for MIC: read-out: Y. pestis MIC Range
B. mallei = test: microbe, parasite or virus in culture; details: Burkholderia mallei; for MIC50: read-out: B. mallei MIC50; for MIC90: read-out: B. mallei MIC90; for MIC: read-out: B. mallei MIC Range
F. tularensis = test: microbe, parasite or virus in culture; details: Francisella tularensis; for MIC50: read-out: F. tularensis MIC50; for MIC: read-out: F. tularensis MIC Range
P. aeruginosa 1705904 = test: MIC, microtiter-based liquid assay (CLSI); details: Pseudomonas aeruginosa, MDR strain
[3] = ATCC25922, read-out: MIC E. coli ATCC25922 + 50% HS
[4] = ATCC25922, read-out: MIC E. coli ATCC25922

| SMILES | MIC50 (B. pseudomallei) [µg/mL] | MIC90 (B. pseudomallei) [µg/mL] | MIC (E. coli ATCC25922; [3]) [µg/mL] | MIC (E. coli ATCC25922; [4]) [µg/mL] | MIC (E. coli 1705878) [µg/mL] | MIC (E. coli MG1655 parent) [µg/mL] | MIC (E. coli CAG12184 TolC) [µg/mL] | MIC [1] [µg/mL] | MIC (S. aureus 11540 MRSA) [µg/mL] | MIC (K. pneumoniae 1705949) [µg/mL] | MIC (K. pneumoniae 1705966) [µg/mL] | MIC (A. baumannii 1705936) [µg/mL] | MIC (A. baumannii 1705943) [µg/mL] | MIC (P. aeruginosa ATCC27853) [µg/mL] | MIC (P. aeruginosa 1705886) [µg/mL] | MIC [2] [µg/mL] | MIC50 (B. mallei) [µg/mL] | MIC90 (B. mallei) [µg/mL] | MIC (B. mallei) [µg/mL] | MIC (P. aeruginosa 1705904) [µg/mL] | other results |
| --- | --- | --- | --- | --- | --- | --- | --- | --- | --- | --- | --- | --- | --- | --- | --- | --- | --- | --- | --- | --- | --- |
| CC(C)(O/N=C(\C(=O)N[C@@H]1C(=O)N2C(C(=O)[O-])=C(C[n+]3ccccc3)CS[C@H]12)c1csc(N)n1)C(=O)O [Ceftazidime, reference compound] | 2 (≈ 3.66 µM) | 4 (≈ 7.32 µM) | – | – | – | – | – | – | – | – | – | – | – | – | – | – | – | – | – | – | MIC (B. pseudomallei): 1 to 64 µg/mL (≈ 1.83 to 117 µM) |
| CC(C)c1cc(CCC[C@H](C)N)cc(-c2cc3cn(-c4ccc([C@H](C)NCCCNC(=N)N)cc4)c(=O)nc3[nH]2)c1F [Compound 7] | 2 (≈ 3.48 µM) | 4 (≈ 6.96 µM) | 1 | 0.5 (≈ 0.87 µM) | 1 (≈ 1.74 µM) | 0.5 (≈ 0.87 µM) | 0.5 (≈ 0.87 µM) | 0.25 (≈ 0.435 µM) | 0.5 (≈ 0.87 µM) | 1 (≈ 1.74 µM) | 0.5 (≈ 0.87 µM) | 4 (≈ 6.96 µM) | 0.5 (≈ 0.87 µM) | 8 (≈ 13.9 µM) | 4 (≈ 6.96 µM) | 2 | 0.06 (≈ 0.104 µM) | 0.12 (≈ 0.209 µM) | 0.03 to 0.5 (≈ 0.0522 to 0.87 µM) | – | MIC50 (B. anthracis; read-out: B. anthracis MIC50): 0.12 µg/mL (≈ 0.209 µM); MIC90 (B. anthracis; read-out: B. anthracis MIC90): 0.25 µg/mL (≈ 0.435 µM); MIC (B. anthracis; read-out: B. anthracis MIC Range): 0.03 to 0.5 µg/mL (≈ 0.0522 to 0.87 µM); MIC50 (Y. pestis; Yersinia pestis): 0.25 µg/mL (≈ 0.435 µM); MIC90 (Y. pestis; Yersinia pestis, read-out: Y. pestis MIC90): 0.5 µg/mL (≈ 0.87 µM); MIC (Y. pestis; Yersinia pestis): 0.06 to 1 µg/mL (≈ 0.104 to 1.74 µM); MIC50 (F. tularensis): 0.06 µg/mL (≈ 0.104 µM); MIC90 (F. tularensis; read-out: F. tularensis MIC90): 0.12 µg/mL (≈ 0.209 µM); MIC (F. tularensis): 0.03 to 0.5 µg/mL (≈ 0.0522 to 0.87 µM); MIC (B. pseudomallei): 1 to 8 µg/mL (≈ 1.74 to 13.9 µM) |
| C[C@H](NCCCNC(=N)N)c1ccc(-n2cc3cc(-c4cc(C5CCC(CN)CC5)cc(Cl)c4F)[nH]c3nc2=O)cc1 (stereo partly shown) [Compound 8] | – | – | 2 | 0.5 (≈ 0.843 µM) | 1 (≈ 1.69 µM) | 0.25 (≈ 0.421 µM) | 0.25 (≈ 0.421 µM) | 0.5 (≈ 0.843 µM) | 0.25 (≈ 0.421 µM) | 2 (≈ 3.37 µM) | 1 (≈ 1.69 µM) | 1 (≈ 1.69 µM) | 0.5 (≈ 0.843 µM) | 4 (≈ 6.74 µM) | 4 (≈ 6.74 µM) | 4 | ≤ 0.03 | 0.12 (≈ 0.202 µM) | 0.03 to 0.25 (≈ 0.0506 to 0.421 µM) | 4 (≈ 6.74 µM) | Y. pestis MIC50 (Y. pestis): 0.06 µg/mL; MIC50 (Y. pestis; Yersinia pestis): 0.12 µg/mL (≈ 0.202 µM); MIC (Y. pestis; Yersinia pestis): 0.03 to 0.5 µg/mL (≈ 0.0506 to 0.843 µM); MIC50 (F. tularensis): 0.06 µg/mL (≈ 0.101 µM); MIC (F. tularensis): 0.03 to 2 µg/mL (≈ 0.0506 to 3.37 µM) |
| CC[C@H]1OC(=O)[C@H](C)[C@@H](O[C@H]2C[C@@](C)(OC)[C@@H](O)[C@H](C)O2)[C@H](C)[C@@H](O[C@@H]2O[C@H](C)C[C@H](N(C)C)[C@H]2O)[C@](C)(O)C[C@@H](C)CN(C)[C@H](C)[C@@H](O)[C@]1(C)O [Azithromycin, reference compound] | – | – | – | – | – | – | – | – | – | – | – | – | – | – | – | – | 0.5 (≈ 0.668 µM) | 1 (≈ 1.34 µM) | 0.12 to 1 (≈ 0.16 to 1.34 µM) | – | – |
| C=CC[C@H](NCCCNC(=N)N)c1ccc(-n2cc3cc(-c4cc(CCC[C@H](C)N)cc(Cl)c4F)[nH]c3nc2=O)cc1 [Compound 9] | – | – | 0.5 | 0.25 (≈ 0.421 µM) | 0.5 (≈ 0.843 µM) | 0.25 (≈ 0.421 µM) | 0.25 (≈ 0.421 µM) | 0.25 (≈ 0.421 µM) | 0.25 (≈ 0.421 µM) | 0.5 (≈ 0.843 µM) | 0.25 (≈ 0.421 µM) | 0.5 (≈ 0.843 µM) | 0.25 (≈ 0.421 µM) | 2 (≈ 3.37 µM) | 2 (≈ 3.37 µM) | 0.5 | – | – | – | 4 (≈ 6.74 µM) | – |
| CN(C)c1cc(NC(=O)CNC(C)(C)C)c(O)c2c1C[C@H]1C[C@H]3[C@H](N(C)C)C(O)=C(C(N)=O)C(=O)[C@@]3(O)C(O)=C1C2=O [Tigecycline, reference compound] | – | – | 0.25 | 0.125 (≈ 0.213 µM) | 0.5 (≈ 0.854 µM) | 0.25 (≈ 0.427 µM) | 0.125 (≈ 0.213 µM) | ≤ 0.06 | 0.25 (≈ 0.427 µM) | 1 (≈ 1.71 µM) | 0.5 (≈ 0.854 µM) | 2 (≈ 3.41 µM) | 0.125 (≈ 0.213 µM) | 8 (≈ 13.7 µM) | 8 (≈ 13.7 µM) | ≤ 0.06 | – | – | – | > 32 | – |
